Source: patent publication US20110009343A1, “MODULATORS OF AMYLOID AGGREGATION” (Praecis Pharmaceuticals, Inc., priority 1995, published 2011)
Ends that are not written are not given here. Peptide text beside a SMILES is read from it. * marks the point of attachment. Cholyl = C[C@H](CCC(=O)*)[C@H]1CC[C@H]2[C@@H]3[C@H](O)C[C@@H]4C[C@H](O)CC[C@]4(C)[C@H]3C[C@H](O)[C@]12C

Experiments:
Aβ1-40 = target: T1, Aβ1-40 (Homo sapiens, UniProt P05067); test: Nucleation assay (turbidity, A405 nm); assay type: biochemical; settings: for ΔLag (ratio of lag time with test compound to lag time of control) / inhibition at 100 mol %: Table V; for ΔLag (ratio of lag time with test compound to lag time of control): 100 mole % inhibitor relative to Aβ1-40; for inhibition at 100 mol %: 100 mole % inhibitor, read-out: % Inucl'n (percent reduction in maximum observed turbidity);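 as to all read-outs here: synthetic Aβ monomer polymerization followed by turbidity in 96-well plates with continuous shaking, read every 15 minutes over 5 hours, compared against wells lacking test compound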
T1 construct: (β-AP1-40) was obtained commercially from Bachem (Torrance, Calif.); purchased Bachem (Torrance, Calif.)
Source text: The nucleation assay is employed to determine the ability of test compounds to alter (e.g. inhibit) the early events in formation of β-AP fibers from monomeric β-AP. […] The time delay before polymerization of β-AP monomer can be quantified as well as the extent of formation of insoluble fiber by light scattering (turbidity). Polymerization reaches equilibrium when the maximum turbidity reaches a plateau. The turbidity of a solution of natural β-AP in the absence or presence of various concentrations of a β-amyloid modulator compound is determined by measuring the apparent absorbance of the solution at 405 nm (A405 nm) over time. The threshold of sensitivity for the measurement of turbidity is in the range of 15-20 μM β-AP. […] This assay can be performed using stirring or shaking to accelerate polymerization, thereby increasing the speed of the assay. Moreover the assay can be adapted to a 96-well plate format to screen multiple compounds.
HFIP-solubilized peptide is sonicated in a waterbath sonicator for 5 mM at highest setting, then evaporated to dryness under a stream of argon. The peptide film is resuspended in anhydrous dimethylsulfoxide (DMSO) at a concentration of 6.9 mg/ml (25× concentration), sonicated for 5 mM as before, then filtered through a 0.2 micron nylon syringe filter (VWR cat. No. 28196-050). Test compounds are dissolved in DMSO at a 100× concentration. […] Ten microliters of the mixture is then added to the bottom of a well of a Corning Costar ultra low binding 96-well plate (Corning Costar, Cambridge Mass.; cat. No. 2500). Ninety microliters of water is added to the well, the plate is shaken on a rotary shaken at a constant speed at room temperature for 30 seconds, an additional 100 μl of 2×PTL buffer (20 mM NaH2PO4, 300 mM NaCl, pH 7.4) is added to the well, the plate is reshaken for 30 seconds and a baseline (t=0) turbidity reading is taken by measuring the apparent absorbance at 405 nm using a Bio-Rad Model 450 Microplate Reader. The plate is then returned to the shaker and shaken continuously for 5 hours. Turbidity readings are taken at 15 minute intervals.
β-amyloid aggregation in the absence of any modulators results in enhanced turbidity of the natural β-AP solution (i.e., an increase in the apparent absorbance at 405 nm over time).
Accordingly a fold increase in lag time of 1.0 indicates no change in lag time, whereas numbers >1.0 indicate an increase in lag time. The “% inhibition of plateau”, which is a measure of the ability of the compound to decrease the total amount of aggregation, refers to the reduction of the final turbidity in the presence of the test compound expressed as a percent of the control without the test compound.

cultured neuronal cells = test: Neurotoxicity of Aβ1-40 preparations with or without modulator (MTT), cell line not specified; assay type: cell-based; settings: for delay of the appearance of neurotoxicity relative to control: compared with delay of polymerization in nucleation assay
Experimental: The neurotoxicity of natural β-amyloid peptide aggregates, in either the presence or absence of a β-amyloid modulator, is tested in a cell-based assay using either a rat or human neuronally-derived cell line (PC-12 cells or NT-2 cells, respectively) and the viability indicator 3,(4,4-dimethylthiazol-2-yl)2,5-diphenyl-tetrazolium bromide (MTT). […] MTT (commercially available from Sigma Chemical Co.) is a chromogenic substrate that is converted from yellow to blue in viable cells, which can be detected spectrophotometrically.
To test the neurotoxicity of natural β-amyloid peptides, stock solutions of fresh Aβ monomers and aged Aβ aggregates were first prepared. […] Peptide prepared in this way and tested immediately on cells is referred to as “fresh” Aβ monomer. To prepare “aged” Aβ aggregates, peptide solution was placed in a 1.5 ml Eppendorf tube and incubated at 37° C. for eight days to allow fibrils to form. Such “aged” Aβ peptide can be tested directly on cells or frozen at −80° C. The neurotoxicity of fresh monomers and aged aggregates were tested using PC12 and NT2 cells. PC 12 cells were routinely cultured in Dulbeco's modified Eagle's medium (DMEM) containing 10% horse serum, 5% fetal calf serum, 4 mM glutamine, and 1% gentamycin. NT2 cells were routinely cultured in OPTI-MEM medium (GIBCO BRL CAT. #31985) supplemented with 10% fetal calf serum, 2 mM glutamine and 1% gentamycin. Cells were plated at 10-15,000 cells per well in 90 μl of fresh medium in a 96-well tissue culture plate 3-4 hours prior to treatment. The fresh or aged Aβ peptide solutions (10 μL) were then diluted 1:10 directly into tissue culture medium so that the final concentration was in the range of 1-10 μM peptide. Cells are incubated in the presence of peptide without a change in media for 48 hours at 37° C. For the final three hours of exposure of the cells to the β-AP preparation, MTT was added to the media to a final concentration of 1 mg/ml and incubation was continued at 37° C. Following the two hour incubation with MTT, the media was removed and the cells were lysed in 100 μL isopropanol/0.4N HCl with agitation. An equal volume of PBS was added to each well and the plates were agitated for an additional 10 minutes. Absorbance of each well at 570 nm was measured using a microtiter plate reader to quantitate viable cells.

Aβ(1-40) peptide [1] = target: T2, Aβ(1-40) peptide (Homo sapiens, UniProt P05067); test: Shaken plate aggregation assay (absorbance 405 nm); assay type: biochemical; settings: % conc relative to Aβ(1-40) as printed in cell
T2 construct: (β-AP1-40) was obtained commercially from Bachem (Torrance, Calif.); purchased Bachem (Torrance, Calif.)
Experimental: HFIP solubilized peptide was sonicated in a waterbath sonicator for 5 mM at highest setting, then evaporated to dryness under a stream of argon. The peptide film was resuspended in anhydrous dimethylsulfoxide (DMSO) at a concentration of 6.9 mg/ml, sonicated for 5 mM as before, then filtered through a 0.2 micron nylon syringe filter (VWR cat. No. 28196-050).
Candidates were assayed in triplicate. […] Into an ultra low binding 96 well plate (Corning Costar cat. No. 2500, Cambridge Mass.) 100 rtl PTL buffer (150 mM NaCl, 10 mM NaH2PO4; pH 7.4) was aliquotted per well. For each candidate, 10 μl of peptide mixture in DMSO was aliquotted into each of three wells containing buffer. The covered plate was vigorously vortexed on a plate shaker at high speed for 30 seconds. An additional 100 μl of PTL buffer was added to each well and again the plate was vortexed vigorously for 30 sec. Absorbance at 405 nm was immediately read in a plate reader for a baseline reading. The plate was returned to the plate shaker and vortexed at moderate speed for 5 hours at room temperature, with absorbance readings taken at 15-20 mM intervals. Increased absorbance indicated aggregation.

Aβ(1-40) peptide [2] = target: T2, Aβ(1-40) peptide; test: Seeded static assay (SSA), Thioflavin-T fluorescence; assay type: biochemical; settings: inhibitor tested at 100 μM and 10 μM
Experimental: The peptide was dissolved in 1/25 volume of dimethysulfoxide (DMSO), followed by water to 1/2 volume and 1/2 volume 2×PBS (10×PBS: NaCl 137 mM, KCl 2.7 mM Na2HPO4.7H2O 4.3 mM, KH2PO4 1.4 mM pH 7.2) to a final concentration of 200 μM.
To prepare a stock seed, 1 ml of the above Aβ monomer preparation, was incubated for 8 days at 37° C. and sheared sequentially through an 18, 23, 26 and 30 gauge needle 25, 25, 50, and 100 times respectively. 2 μl samples of the sheared material was taken for fluorescence measurements after every 50 passes through the 30 gauge needle until the fluorescence units (FU) had plateaued (approx. 100-150×).
To prepare a candidate inhibitor, the required amount of candidate inhibitor was weighed out and the stock dissolved in 1×PBS to a final concentration of 1 mM (10× stock). If insoluble, it was dissolved in 1/10 volume of DMSO and diluted in 1×PBS to 1 mM. […]
For the aggregation assay, each sample was set up in triplicate [50 μl of 200 μM monomer, 125 FU sheared seed (variable quantity dependent on the batch of seed, routinely 3-6 μl), 10 μl of 10× inhibitor solution, final volume made up to 100 μl with 1×PBS]. […] The assay was incubated at 37° C. for 6 h, taking 2 μl samples hourly for fluorescence measurements. To measure fluorescence, a 2 μl sample of Aβ was added to 400 μl of Thioflavin-T solution (50 mM Potassium Phosphate 10 mM Thioflavin-T pH 7.5).

natural β-AP (β-AP1-40) = target: T3, natural β-AP (β-AP1-40) (Homo sapiens, UniProt P05067); test: Optical density (turbidity, A400 nm) aggregation assay; assay type: biochemical
T3 construct: (β-AP1-40) was obtained commercially from Bachem (Torrance, Calif.); purchased Bachem (Torrance, Calif.)
Experimental: In one assay, β-AP aggregation was measured by determining the increase in turbidity of a solution of natural β-AP over time in the absence or presence of various concentrations of the modulator. Turbidity of the solution was quantitated by determining the optical density at 400 nm (A400 nm) of the solution over time.
The aggregation of natural β-AP in the absence of modulator was determined as follows. β-AP1-40 was dissolved in hexafluoro isopropanol (HFIP; Aldrich Chemical Co., Inc.) at 2 mg/ml. Aliquots of the HFIP solution (87 μl) were transferred to individual 10 mm×75 mm test tubes. A stream of argon gas was passed through each tube to evaporate the HFIP. To the resulting thin film of peptide, dimethylsulfoxide (DMSO; Aldrich Chemical Co., Inc.) (25 μl) was added to dissolve the peptide. A 2 mm×7 mm teflon-coated magnetic stir bar was added to each tube. Buffer (475 μL of 100 mM NaCl, 10 mM sodium phosphate, pH 7.4) was added to the DMSO solution with stiffing. The resulting mixture was stirred continuously and the optical density was monitored at 400 nm to observe the formation of insoluble peptide aggregates.
Alternatively, β-AP1-40 was dissolved in DMSO as described above at 1.6 mM (6.9 mg/ml) and aliquots (25 μl) were added to stirred buffer (475 μl), followed by monitoring of absorbance at 400 nm […]

β-AP1-40 = target: T4, β-AP1-40 (Homo sapiens, UniProt P05067); test: Static aggregation assay (SDS-PAGE); assay type: biochemical
T4 construct: (β-AP1-40) was obtained commercially from Bachem (Torrance, Calif.); purchased Bachem (Torrance, Calif.)
Experimental: In a third assay, β-AP aggregation was measured by visualization of the peptide aggregates using SDS-polyacrylamide gel electrophoresis (SDS-PAGE). In this assay, β-AP solutions were allowed to aggregate over a period of time and then aliquots of the reaction were run on a standard SDS-PAGE gel. Typical solution conditions were 200 μM of β-AP1-40 in PBS at 37° C. for 8 days or 200 μM β-AP1-40 in 0.1 M sodium acetate at 37° C. for 3 days. The peptide aggregates were visualized by Coomassie blue staining of the gel or, for β-AP solutions that included a biotinylated β-AP modulator, by western blotting of a filter prepared from the gel with a streptavidin-peroxidase probe, followed by a standard peroxidase assay. The β-AP aggregates are identifiable as high molecular weight, low mobility bands on the gel, which are readily distinguishable from the low molecular weight, high mobility β-AP monomer or dimer bands.

T1 sequence (P05067 672-711): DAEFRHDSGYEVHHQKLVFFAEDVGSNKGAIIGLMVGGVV
T2 sequence (P05067 672-711): as above
T3 sequence (P05067 672-711): as above
T4 sequence (P05067 672-711): as above

Compound	Fold Increase in Lag Time (Aβ1-40; Table IV, 10 mole %) [fold]	ΔLag (ratio of lag time with test compound to lag time of control) (Aβ1-40)	inhibition at 100 mol % (Aβ1-40) [%]	delay of the appearance of neurotoxicity relative to control (cultured neuronal cells)	Fold Increase in Lag Time (Aβ1-40; Table IV, 100 mole %) [fold]	further results
CC(C)C[C@H](NC(=O)[C@H](CCCCN)NC(=O)[C@H](CCC(N)=O)NC(=O)[C@H](Cc1c[nH]cn1)NC(=O)[C@H](Cc1c[nH]cn1)NC(=O)[C@@H](NC(=O)[C@H](CCC(=O)O)NC(=O)[C@H](Cc1ccc(O)cc1)NC(=O)CNC(=O)[C@H](CO)NC(=O)[C@H](CC(=O)O)NC(=O)[C@H](Cc1c[nH]cn1)NC(=O)CC[C@@H](C)[C@H]1CC[C@H]2[C@@H]3[C@H](O)C[C@@H]4C[C@H](O)CC[C@]4(C)[C@H]3C[C@H](O)[C@]12C)C(C)C)C(=O)N[C@H](C(=O)N[C@@H](Cc1ccccc1)C(=O)N[C@@H](Cc1ccccc1)C(=O)O)C(C)C [PPI-264, cholyl-Aβ6-20] (Cholyl-HDSGYEVHHQKLVFF-OH)	2.0					Fold Increase in Lag Time (Aβ1-40; Table II, 100 mole % vs 50 μM Aβ1-40): >4.5 fold; Fold Increase in Lag Time (Aβ1-40; Table III, 10 mole %): 2 fold; Fold Increase in Lag Time (Aβ1-40; Table III, 100 mole %): >4.5 fold; aggregation of Aβ1-40 (turbidity) (Aβ1-40; equimolar: Aβ1-40 and modulator both 64 μM, FIG. 4 panel A): effective at inhibiting aggregation of Aβ140; neurotoxicity of Aβ1-40 solution preincubated with modulator (cultured neuronal cells; modulator preincubated with Aβ1-40 monomers, applied to cells 48 hours, MTT): inhibits the neurotoxicity of the Aβ1-40 solution
CC(C)C[C@H](NC(=O)[C@H](CCCCN)NC(=O)CC[C@@H](C)[C@H]1CC[C@H]2[C@@H]3[C@H](O)C[C@@H]4C[C@H](O)CC[C@]4(C)[C@H]3C[C@H](O)[C@]12C)C(=O)N[C@H](C(=O)N[C@@H](Cc1ccccc1)C(=O)N[C@@H](Cc1ccccc1)C(N)=O)C(C)C [PPI-319, cholyl-Aβ16-20-amide]	2.7	5.4	70	coincided with the delay in the time at which polymerization of Aβ began		Fold Increase in Lag Time (Aβ1-40; Table IV, 33 mole %): 5.6 fold
CC(C)C[C@H](NC(=O)[C@H](CCCCN)NC(=O)[C@H](CCC(N)=O)NC(=O)CC[C@@H](C)[C@H]1CC[C@H]2[C@@H]3[C@H](O)C[C@@H]4C[C@H](O)CC[C@]4(C)[C@H]3C[C@H](O)[C@]12C)C(=O)N[C@H](C(=O)N[C@@H](Cc1ccccc1)C(=O)N[C@@H](Cc1ccccc1)C(=O)O)C(C)C [PPI-349, cholyl-Aβ15-20]	2.1	>5	100	coincided with the delay in the time at which polymerization of Aβ began	>5.0	Fold Increase in Lag Time (Aβ1-40; Table III, 33 mole %): 2.3 fold; Fold Increase in Lag Time (Aβ1-40; Table IV, 33 mole %): 2.6 fold
CC(C)C[C@H](NC(=O)[C@H](CCCCN)NC(=O)CC[C@@H](C)[C@H]1CC[C@H]2[C@@H]3[C@H](O)C[C@@H]4C[C@H](O)CC[C@]4(C)[C@H]3C[C@H](O)[C@]12C)C(=O)N[C@H](C(=O)N[C@@H](Cc1ccccc1)C(=O)N[C@@H](Cc1ccccc1)C(=O)O)C(C)C [PPI-350, cholyl-Aβ16-20]	2.4	1.8	72	coincided with the delay in the time at which polymerization of Aβ began	>5.0	Fold Increase in Lag Time (Aβ1-40; Table III, 38 mole %): 3.4 fold
CC(C)C[C@H](NC(=O)CC[C@@H](C)[C@H]1CC[C@H]2[C@@H]3[C@H](O)C[C@@H]4C[C@H](O)CC[C@]4(C)[C@H]3C[C@H](O)[C@]12C)C(=O)N[C@H](C(=O)N[C@@H](Cc1ccccc1)C(=O)N[C@@H](Cc1ccccc1)C(=O)N[C@@H](C)C(=O)O)C(C)C [PPI-368, cholyl-Aβ17-21]		>5	100	coincided with the delay in the time at which polymerization of Aβ began	>5.0	
Candidate Inhibitor 224: Aβ1-40 mutant F19F20->T19T20						Effect in shaken plate assay (Aβ(1-40) peptide [1]): Increased lag; Effect in Seeded Static Assay (Aβ(1-40) peptide [2]): ++ (A strong inhibitor of aggregation. The rate of aggregation in the presence of the inhibitor was decreased compared to the control by at least 30-50%)
Candidate Inhibitor 233: Aβ6-20 modified with acetic acid (HDSGYEVHHQKLVFF; also: modified with acetic acid; UniProt P05067 677-691, looked up, fragment)						Effect in Seeded Static Assay (Aβ(1-40) peptide [2]): ++ (A strong inhibitor of aggregation. The rate of aggregation in the presence of the inhibitor was decreased compared to the control by at least 30-50%)
N-biotinyl-βAP1-40						aggregation of natural β-AP1-40 (turbidity: lag time, slope, plateau) (natural β-AP (β-AP1-40); modulator at 1% in natural β-AP1-40 solution): markedly inhibited; aggregation of natural β-AP1-40 (turbidity) (natural β-AP (β-AP1-40); modulator at 5% in natural β-AP1-40 solution): similarly inhibited aggregation; modulator self-aggregation (high molecular weight aggregates on gel) (β-AP1-40; N-biotinyl peptide alone, no natural β-AP): few if any high molecular weight aggregates were observed; aggregation of mixture with natural β-AP1-40 (high molecular weight aggregates on gel) (β-AP1-40; mixture of natural β-AP1-40 and modulator): reduced amounts of the peptide mixture associated into high molecular weight aggregates
PPI-426: CA-FFVLA-oh, rearranged Aβ17-21				coincided with the delay in the time at which polymerization of Aβ began		
